According to the NIST ThermoML archive (doi:10.1021/je060271a):
± gives the expanded uncertainty stated by the source.

Settings: 303.15 K, Liquid, Vibrating tube method

CCCCCCCC(=O)OCC(COC(=O)CCCCCCC)(COC(=O)CCCCCCC)COC(=O)CCCCCCC [pentaerythritol tetraoctanoate]
Settings | mass density [kg/m3]
2156.4 kPa | 956.7 ± 1.2
2179.1 kPa | 956.6 ± 1.2
2206.4 kPa | 956.8 ± 1.2
2234.6 kPa | 956.8 ± 1.2
2258 kPa | 956.7 ± 1.2
2287 kPa | 956.8 ± 1.2
2316.5 kPa | 956.9 ± 1.2
2341.8 kPa | 956.8 ± 1.2
2372.4 kPa | 956.7 ± 1.2
2402.9 kPa | 957 ± 1.2
2429.4 kPa | 956.7 ± 1.2
2462 kPa | 956.8 ± 1.2
2495.8 kPa | 956.9 ± 1.2
2524.1 kPa | 957 ± 1.2
2559.1 kPa | 956.9 ± 1.2
2596.2 kPa | 957.1 ± 1.2
2642 kPa | 957 ± 1.2
2696.3 kPa | 957.1 ± 1.2
2784.7 kPa | 957.1 ± 1.2
2865.2 kPa | 957.2 ± 1.2
2954.3 kPa | 957.3 ± 1.2
3081.5 kPa | 957.2 ± 1.2
3108.7 kPa | 957.4 ± 1.2
3121.2 kPa | 957.4 ± 1.2
3136.3 kPa | 957.4 ± 1.2
3151.3 kPa | 957.4 ± 1.2
3164 kPa | 957.4 ± 1.2
3179.1 kPa | 957.5 ± 1.2
3193.3 kPa | 957.4 ± 1.2
3204.5 kPa | 957.4 ± 1.2
3218.1 kPa | 957.4 ± 1.2
3229.7 kPa | 957.4 ± 1.2
3242.8 kPa | 957.4 ± 1.2
3256.4 kPa | 957.5 ± 1.2
3270.2 kPa | 957.4 ± 1.2
3284.1 kPa | 957.5 ± 1.2
3580.6 kPa | 957.6 ± 1.2
3702.5 kPa | 957.6 ± 1.2
3720 kPa | 957.5 ± 1.2
3734.9 kPa | 957.7 ± 1.2
3753.7 kPa | 957.7 ± 1.2
3901.1 kPa | 957.9 ± 1.2
4311.5 kPa | 958.1 ± 1.2
4330 kPa | 958 ± 1.2
4352.8 kPa | 958.1 ± 1.2
4371.7 kPa | 958.1 ± 1.2
4395.1 kPa | 958.1 ± 1.2
4412.6 kPa | 958.1 ± 1.2
4416.5 kPa | 958.2 ± 1.2
4419.7 kPa | 958.2 ± 1.2
4422.8 kPa | 958.2 ± 1.2
4423.3 kPa | 958.2 ± 1.2
4424.2 kPa | 958.1 ± 1.2
4426.8 kPa | 958.2 ± 1.2
4435.8 kPa | 958.1 ± 1.2
4446.7 kPa | 958.3 ± 1.2
4455.8 kPa | 958.2 ± 1.2
4466.6 kPa | 958 ± 1.2
4475.6 kPa | 958.1 ± 1.2
4486.7 kPa | 958.2 ± 1.2
4542.6 kPa | 958.3 ± 1.2
4584.4 kPa | 958.1 ± 1.2
4608.3 kPa | 958.4 ± 1.2
4628.1 kPa | 958.3 ± 1.2
4651.8 kPa | 958.3 ± 1.2
4675.6 kPa | 958.3 ± 1.2
4696.6 kPa | 958.2 ± 1.2
4717 kPa | 958.3 ± 1.2
4742.3 kPa | 958.4 ± 1.2
4763.2 kPa | 958.3 ± 1.2
4788.5 kPa | 958.3 ± 1.2
4809.9 kPa | 958.5 ± 1.2
4835.7 kPa | 958.4 ± 1.2
4857.2 kPa | 958.4 ± 1.2
4981.8 kPa | 958.4 ± 1.2
5009.3 kPa | 958.4 ± 1.2
5033 kPa | 958.5 ± 1.2
5062 kPa | 958.5 ± 1.2
5085.4 kPa | 958.5 ± 1.2
5113.6 kPa | 958.5 ± 1.2
5138.1 kPa | 958.6 ± 1.2
5167.4 kPa | 958.5 ± 1.2
5197.3 kPa | 958.7 ± 1.2
5221.9 kPa | 958.5 ± 1.2
5251.8 kPa | 958.7 ± 1.2
5277.7 kPa | 958.7 ± 1.2
5335.3 kPa | 958.6 ± 1.2
5367.5 kPa | 958.6 ± 1.2
5396 kPa | 958.7 ± 1.2
5428.7 kPa | 958.7 ± 1.2
5455.7 kPa | 958.7 ± 1.2
5489.1 kPa | 958.8 ± 1.2
5517.5 kPa | 958.8 ± 1.2
5552 kPa | 958.7 ± 1.2
5581.6 kPa | 958.8 ± 1.2
5767 kPa | 959 ± 1.2
5794 kPa | 959.1 ± 1.2
5810.8 kPa | 959 ± 1.2
5827.4 kPa | 959 ± 1.2
5847.7 kPa | 959 ± 1.2
5864.7 kPa | 959.1 ± 1.2
5884.7 kPa | 959.1 ± 1.2
5905.3 kPa | 959.1 ± 1.2
5922.3 kPa | 959.1 ± 1.2
5943.2 kPa | 959 ± 1.2
5960.8 kPa | 959.2 ± 1.2
5981.9 kPa | 959.1 ± 1.2
5999.7 kPa | 959.2 ± 1.2
6021.7 kPa | 959.2 ± 1.2
6040 kPa | 959.2 ± 1.2
6060.9 kPa | 959.1 ± 1.2
6079.2 kPa | 959.1 ± 1.2
6100.3 kPa | 959.1 ± 1.2
6121.9 kPa | 959.2 ± 1.2
6140.7 kPa | 959.2 ± 1.2
6163.6 kPa | 959.3 ± 1.2
6182 kPa | 959.2 ± 1.2
6204.5 kPa | 959.3 ± 1.2
6223.9 kPa | 959.3 ± 1.2
6247 kPa | 959.2 ± 1.2
6267.1 kPa | 959.2 ± 1.2
6290.2 kPa | 959.3 ± 1.2
6308.9 kPa | 959.3 ± 1.2
6332.4 kPa | 959.2 ± 1.2
6355.9 kPa | 959.3 ± 1.2
6375.8 kPa | 959.2 ± 1.2
6400.1 kPa | 959.3 ± 1.2
6445.1 kPa | 959.4 ± 1.2
6470.5 kPa | 959.3 ± 1.2
6490.8 kPa | 959.3 ± 1.2
6583.6 kPa | 959.4 ± 1.2
6610.2 kPa | 959.4 ± 1.2
6631.8 kPa | 959.5 ± 1.2
6658.3 kPa | 959.5 ± 1.2
6679.2 kPa | 959.5 ± 1.2
6705.9 kPa | 959.6 ± 1.2
6728.4 kPa | 959.5 ± 1.2
6755.2 kPa | 959.5 ± 1.2
6783 kPa | 959.5 ± 1.2
6805.9 kPa | 959.6 ± 1.2
6833.9 kPa | 959.6 ± 1.2
6861.7 kPa | 959.7 ± 1.2
6913.4 kPa | 959.7 ± 1.2
7101.4 kPa | 959.8 ± 1.2
7125.9 kPa | 959.9 ± 1.2
7156.7 kPa | 959.7 ± 1.2
7182.6 kPa | 959.8 ± 1.2
7214 kPa | 959.8 ± 1.2
